Data as given in publication PMC3852005, “Crystal Structures of the Human G3BP1 NTF2-Like Domain Visualize FxFG Nup Repeat Specificity” (PLoS ONE, 2013).
Where no end group is shown, it is not given here.

T1: G3BP2a NTF2-like domain (G3BP2a 1–139) (Homo sapiens, UniProt Q9UN86)
T1 construct: His6 (thrombin-cleavable) (N, cleaved yes); made in house; host or cells: Escherichia coli BL21(DE3)
T1 sequence (Q9UN86 1-139): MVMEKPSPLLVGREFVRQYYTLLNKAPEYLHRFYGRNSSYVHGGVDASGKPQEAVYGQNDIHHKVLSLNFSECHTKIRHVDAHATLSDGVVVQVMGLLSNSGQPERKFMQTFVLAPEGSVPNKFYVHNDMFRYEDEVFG

T2: FxFG Nup repeat peptide (also: chloride salt)
T2 chain: DSGFSFGSK


How the values were obtained:
[1] = target: T3, human G3BP1 NTF2-like domain (G3BP1 1–139) (Homo sapiens, UniProt Q13283); assay: ITC, Nup peptide binding to G3BP1 NTF2-like domain (1–139); conditions: 0.1 M NaCl and 0.1 M HEPES, pH 8, 25°C, repeated three times; for heat changes on titration (ITC): titration of peptide into G3BP1 1–139, ITC200, aliquots of 2 µL peptide (5.2 mM)
T3 construct: His6 (thrombin-cleavable) (N, cleaved yes); made in house; host or cells: Escherichia coli BL21(DE3)
Description: (§1) The three synthetic peptides, GQSPGFGQGGSV (referred to as FG), DSGGLFGSK (GLFG) and DSGFSFGSK (FxFG), were obtained as more than 98% pure lyophilized chloride salts from Caslo Laboratory ApS, Denmark.
(§2) ITC measurements for the wild type NTF2-like domain were performed with an ITC200 titration calorimeter (MicroCal). Data analysis was done using the Origin software. Protein samples were dialyzed against 0.1 M NaCl and 0.1 M HEPES, pH 8, and passed through 0.22 µm centrifugal filter units (Millipore) before the experiments. Peptides were solubilized in the dialysis buffer and the pH adjusted before filtration. In each experiment, aliquots of 2 µL peptide (5.2 mM) were injected into the sample cell every 180 seconds at 25°C. Background measurements were performed with buffer injected into the protein solution and peptides injected into the buffer solution. The concentrations of the peptides were determined by amino acid analysis (Department of Systems Biology, DTU, Denmark). Experiments were repeated three times and the results given as mean ± standard deviation.

[2] = target: T1, G3BP2a NTF2-like domain (G3BP2a 1–139); assay: ITC, Nup peptide binding to G3BP2a NTF2-like domain (1–139); conditions: 0.1 M NaCl and 0.1 M HEPES, pH 8, 25°C, repeated three times; for heat changes on titration (ITC): titration of peptide into G3BP2a 1–139 (data not shown), ITC200, aliquots of 2 µL peptide (5.2 mM)
Description: as §1, §2

[3] = target: T4, G3BP1 1–139 Phe15Ala mutant (Homo sapiens, UniProt Q13283, F15A); assay: ITC, FxFG peptide binding to G3BP1 1–139 Phe15Ala mutant; conditions: ITC (VP-ITC), 0.1 M NaCl and 0.1 M HEPES, pH 8, 20°C, aliquots of 15 µL peptide (4.1 mM) every 360 seconds, single experiment
T4 construct: The expression vector for the G3BP1 1–139 Phe15Ala mutant was produced by GenScript Inc. (USA); His6 (thrombin-cleavable) (N, cleaved yes); made in house; host or cells: Escherichia coli BL21(DE3)
Description: as §1
Data for the Phe15Ala G3BP1 mutant were collected in a single experiment on a VP-ITC (MicroCal) instrument using buffer conditions as for the wildtype. Aliquots of 15 µL peptide (4.1 mM) were injected into the protein sample every 360 seconds at 20°C.

[4] = target: T2, FxFG Nup repeat peptide; assay: ITC

T3 sequence (Q13283 1-139): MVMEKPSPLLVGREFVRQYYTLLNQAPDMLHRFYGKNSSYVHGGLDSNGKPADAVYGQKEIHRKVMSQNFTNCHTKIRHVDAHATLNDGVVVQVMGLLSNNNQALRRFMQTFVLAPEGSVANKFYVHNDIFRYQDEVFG
T4 sequence (Q13283 1-139 F15A): as the sequence (Q13283 1-139) above, with F15A counted along it

| Molecule | heat changes on titration (ITC) [1] | heat changes on titration (ITC) [2] | other results |
| --- | --- | --- | --- |
| DSGFSFGSK [FxFG, DSGFSFGSK] |  |  | Kd ([1]; ITC (ITC200), G3BP1 1–139, aliquots of 2 µL peptide (5.2 mM) every 180 seconds, one-binding-site per chain model, mean ± standard deviation): 115 ± 3 µM; Kd ([2]; ITC (ITC200), G3BP2a NTF2-like domain, aliquots of 2 µL peptide (5.2 mM) every 180 seconds, mean ± standard deviation, data not shown): 114 ± 2 µM; Kd [3]: 670 µM |
| DSGGLFGSK [synthetic nucleoporin GLFG repeat peptide, more than 98% pure, from Caslo Laboratory] | did not result in significant heat changes | did not result in significant heat changes |  |
| GQSPGFGQGGSV [synthetic nucleoporin FG repeat peptide, more than 98% pure, from Caslo Laboratory] | did not result in significant heat changes | did not result in significant heat changes |  |
| G3BP2a NTF2-like domain 1-139 (protein) MVMEKPSPLLVGREFVRQYYTLLNKAPEYLHRFYGRNSSYVHGGVDASGKPQEAVYGQNDIHHKVLSLNFSECHTKIRHVDAHATLSDGVVVQVMGLLSNSGQPERKFMQTFVLAPEGSVPNKFYVHNDMFRYEDEVFG |  |  | Kd [4]: 114 µM |
